Results from patent publication US20050042213A1, “Methods and pharmaceutical compositions for modulating heparanase activation and uses thereof” (InSight Biopharmaceuticals Ltd., priority 2003, published 2005).
One block for each compound: values may come before it. The star is where a group is joined. AMC = Cc1cc(=O)oc2cc(N*)ccc12; Cbz = O=C(OCc1ccccc1)*

Assays:
pro-heparanase (H60) [1] = target: T1, pro-heparanase (H60) (Homo sapiens, UniProt Q9Y251, K307R); experiment: Pro-heparanase activation in a cell-based assay (293 cells, DMB assay)
T1 sequence (Q9Y251 36-543 K307R): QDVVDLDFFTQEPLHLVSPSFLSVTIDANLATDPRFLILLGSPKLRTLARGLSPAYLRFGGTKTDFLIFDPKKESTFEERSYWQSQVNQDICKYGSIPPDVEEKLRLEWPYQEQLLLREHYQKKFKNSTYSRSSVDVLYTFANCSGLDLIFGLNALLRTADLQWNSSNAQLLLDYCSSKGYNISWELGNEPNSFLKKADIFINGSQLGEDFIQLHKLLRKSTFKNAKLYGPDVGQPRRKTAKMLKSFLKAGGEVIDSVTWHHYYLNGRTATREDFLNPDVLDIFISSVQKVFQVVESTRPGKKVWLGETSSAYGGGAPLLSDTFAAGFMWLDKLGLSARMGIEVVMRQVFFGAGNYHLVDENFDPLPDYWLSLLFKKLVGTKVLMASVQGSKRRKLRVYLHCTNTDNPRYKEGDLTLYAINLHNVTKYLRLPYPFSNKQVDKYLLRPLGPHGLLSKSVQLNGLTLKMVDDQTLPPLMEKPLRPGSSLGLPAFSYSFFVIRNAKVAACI

[2] = Heparin binding of compounds (heparin sepharose CL-6B beads); settings: compound at 5 uM
Description: Heparin binding—5 μM of the selected compound was prepared in a solution of PBS pH 7.2 with 0.05% Tween and 5% DMSO. […] Excess water was discarded by filtration using a Multiscreen vacuum manifold (Millipore, Cat No. MAVM 096 00). 200 μl of each compound tested was transferred to three wells of the filter plate—one empty well, one with sepharose CL-6B and one with heparin sepharose CL-6B. Plates were rotated for 2 hrs at 37° C. followed by filtration to a new 96 well clear plate, using a Multiscreen vacuum manifold. The absorbance spectrum of the filtrate in each well was determined using a VERSAmax plate reader (Molecular devices). Percent of heparin binding was calculated from the binding to heparin sepharose CL-6B as compared to the binding of the compound to the control sepharose CL-6B beads.

[3] = target: T2, pro-heparanase transiently expressed in 293 cells (Homo sapiens, UniProt Q9Y251, K307R); experiment: Pro-heparanase processing in transiently transfected 293 cells (Western blot); assay type: cell-based
T2 sequence (Q9Y251 36-543 K307R): T1 sequence (Q9Y251 36-543 K307R)
Description: (§1) Western blot analysis—Western blot analysis was performed using rabbit anti-heparanase polyclonal antibodies as described in U.S. Pat. Nos. 6,177,545; 6,531,129; and 6,562,950.
Transient transfections—293 cells (200,000) were plated onto a 6 well tissue culture plate. 24 hrs later, the cells were transfected with 1 μg pSI (Promega) hpa plasmid (U.S. Pat. No. 6,475,763) in 3 μl Fugene reagent that was pre-incubated for 15 min in 100 μl medium without serum. Cells were treated with inhibitors 4 and 17 hrs following transfection.

β-FGF = target: T3, β-FGF (Homo sapiens, UniProt P09038); experiment: Elisa assay for binding of β-FGF to heparin; settings: inhibition of β-FGF binding to heparin
T3 construct: purchased Sigma F0291
T3 sequence (P09038 143-288): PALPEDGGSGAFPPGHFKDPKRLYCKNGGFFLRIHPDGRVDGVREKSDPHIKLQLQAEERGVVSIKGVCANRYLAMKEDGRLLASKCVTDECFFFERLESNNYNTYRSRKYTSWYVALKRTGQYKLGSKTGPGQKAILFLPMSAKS
Description: Elisa assay for determination of binding of β-FGF to heparin—96 well microplates were coated overnight with Heparin-albumin (Lizard) and blocked with 1% BSA in PBS with 0.05% Tween and 0.01% thimerosal for 2 hrs. β-FGF was added to the plates at a concentration of 0.8 ng/ml and incubated for 45 min at 23-25° C. The amount of β-FGF bound to heparin was detected using anti-FGF monoclonal antibody (Sigma Cat. # F6162) at a concentration of 2.5 ng/ml and secondary antibodies Sheep anti-mouse IgG linked to horseradish peroxidase (1:3000). TMB (Pierce Cat. #34021) was used as a substrate for peroxidase.
(§2) The plates were read at 450 nm with a reference wavelength of 630 nm using a VERSAmax plate reader. […] Percent inhibition was calculated as compared with the control reactions pre-incubated with 1% DMSO only.

VEGF = target: T4, VEGF (Homo sapiens, UniProt P15692); experiment: Elisa assay for binding of VEGF to heparin; settings: inhibition of VEGF binding to heparin
T4 sequence (P15692 27-191 isoform P15692-4): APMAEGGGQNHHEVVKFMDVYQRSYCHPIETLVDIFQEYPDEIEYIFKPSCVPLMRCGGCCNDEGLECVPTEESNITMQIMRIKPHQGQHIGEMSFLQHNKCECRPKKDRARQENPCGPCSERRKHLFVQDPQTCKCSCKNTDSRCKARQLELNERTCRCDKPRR
Description: Elisa assay for determination of binding of VEGF to heparin—96 well microplates were coated overnight with Heparin-albumin (Lizard) and blocked with 1% BSA in PBS with 0.05% Tween and 0.01% thimerosal for 2 hrs. VEGF was added to the plates at a concentration of 2 ng/ml and incubated for 45 min. at 23-25° C. The amount of VEGF bound to heparin was detected using anti-VEGF monoclonal antibody (Sigma Cat. # V4758) at a concentration of 0.26 μg/ml and secondary antibodies Sheep anti-mouse IgG linked to horseradish peroxidase (1:2000). TMB (Pierce Cat. #34021) was used as a substrate for peroxidase.
as §2

antithrombin = antithrombin (Homo sapiens, UniProt P01008); experiment: Elisa assay for binding of antithrombin to heparin; settings: inhibition of antithrombin binding to heparin; NI = no inhibition; read-out: IC50 ATIII
Sequence of antithrombin (P01008 33-464): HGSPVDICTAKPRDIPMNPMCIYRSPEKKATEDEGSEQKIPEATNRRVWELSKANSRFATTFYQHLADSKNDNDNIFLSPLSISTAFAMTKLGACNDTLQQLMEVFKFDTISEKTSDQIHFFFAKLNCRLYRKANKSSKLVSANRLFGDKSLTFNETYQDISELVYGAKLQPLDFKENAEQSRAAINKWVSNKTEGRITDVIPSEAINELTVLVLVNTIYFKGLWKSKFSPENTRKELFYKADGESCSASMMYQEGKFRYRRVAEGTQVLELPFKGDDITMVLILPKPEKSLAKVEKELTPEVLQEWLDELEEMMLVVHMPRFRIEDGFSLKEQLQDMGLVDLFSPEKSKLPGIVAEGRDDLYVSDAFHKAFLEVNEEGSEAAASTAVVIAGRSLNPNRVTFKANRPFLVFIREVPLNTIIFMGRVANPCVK
Description: Elisa assay for determination of binding of antithrombin to heparin—96 well microplates were coated overnight with Heparin-albumin (Lizard) and blocked with I % BSA in PBS with 0.05% Tween and 0.01% thimerosal for 2 hrs. […] was added to the plates at a concentration of 0.5 μg/ml and incubated overnight at 4° C. The amount of antithrombin bound to heparin was detected using an anti-antithrombin monoclonal antibody (Sigma Cat. # A5816) diluted to 1:200, and secondary antibodies (anti-mouse anti-Fc? conjugated to horseradish peroxidase, Jackson cat. # 115-035-008, 1:100). TMB (Pierce Cat. #34021) was used as a substrate for peroxidase.
The plates were read at 450 nm with a reference wavelength of 630 nm using a VERSAmax plate reader. […] Percent inhibition was calculated as compared to the control reactions pre-incubated with 1% DMSO only.

heparanase (H53) = target: T5, heparanase (H53) (Homo sapiens, UniProt Q9Y251, K307R); experiment: Heparanase activity inhibition (H53), DMB assay; assay type: biochemical; settings: heparanase activity inhibition (H53); NI = no inhibition
T5 sequence (Q9Y251 158-543 K307R limits assumed): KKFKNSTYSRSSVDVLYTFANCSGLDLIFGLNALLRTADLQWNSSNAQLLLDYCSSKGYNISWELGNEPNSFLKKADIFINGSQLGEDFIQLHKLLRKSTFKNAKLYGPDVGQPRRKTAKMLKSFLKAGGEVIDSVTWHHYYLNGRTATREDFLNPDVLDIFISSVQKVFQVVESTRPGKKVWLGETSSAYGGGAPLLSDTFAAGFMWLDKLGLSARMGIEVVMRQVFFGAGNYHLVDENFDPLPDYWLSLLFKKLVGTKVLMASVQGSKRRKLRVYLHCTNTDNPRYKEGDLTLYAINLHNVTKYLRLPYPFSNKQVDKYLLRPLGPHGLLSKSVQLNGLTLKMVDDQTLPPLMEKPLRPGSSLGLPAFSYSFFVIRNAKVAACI
T5 sequence (Q9Y251 36-109 limits assumed): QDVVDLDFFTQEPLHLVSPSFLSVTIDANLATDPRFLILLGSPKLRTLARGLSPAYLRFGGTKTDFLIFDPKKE
Description: At the end of the incubation, the cells were lysed by three consecutive cycles of freezing and thawing in a −80° C. Freezer and a 37° C. shaker. Formation of active heparanase was detected by determination of heparanase activity in DMB assay as described in patent application U.S. Pat. No. 6,190,875B.

pro-heparanase (H60) [4] = target: T1, pro-heparanase (H60); experiment: Processing and activation of pro-heparanase in vitro with cathepsin B and D in the presence of heparin (Western blot, DMB assay); assay type: biochemical; settings: cathepsin B and/or cathepsin D, heparin-sepharose
Description: as §1
Following a 17 hours incubation at room temperature, reaction products were filtered to a new plate and quantified using di-methyl-methylene-blue, as described in U.S. Pat. No. 6,190,875.
Assay mixtures contained heparin (Sigma, H3393) or heparinomimetic molecules ethane-1,2-disulfonic acid (Sigma, E2269) and heparin disaccharide IVA (Sigma, H0895) for western blot analysis or heparin sepharose beads for activation assays, in 200 mM acetate buffer, pH 5.5, 4 mM EDTA and 8 mM DTT, with either Cathepsin B, Cathepsin D or both. Following a 17 hours of incubation at room temperature, reaction products were examined by western blot analysis or filtered to a new plate and quantified using di-methyl-methylene-blue, as described in U.S. Pat. No. 6,190,875 for activation assay.

pro-heparanase (H60) [5] = experiment: Processing and activation of pro-heparanase in vitro with cathepsin G; assay type: biochemical, human; settings: in the presence of heparin
Description: The assays were performed in assay mixtures containing heparin for western blot analysis or heparin sepharose beads for activation assays, in PBS, 365 mM NaCl, with 1 μ/ml cathepsin G (Sigma, C4428). Following a 17 hours incubation at room temperature, reaction products were examined in western blot analysis or filtered to a new plate and quantified using di-methyl-methylene-blue, as described in U.S. Pat. No. 6,190,875 for activation assay.

[6] = target: T6, Elastase, human neutrophil (Homo sapiens, UniProt P08246); experiment: Determination of elastase activity; assay type: biochemical; settings: Table 13
T6 construct: Elastase, human neutrophil (Calbiochem cat.# 324681); purchased Calbiochem 324681; host or cells: human neutrophils
T6 sequence (P08246 30-267): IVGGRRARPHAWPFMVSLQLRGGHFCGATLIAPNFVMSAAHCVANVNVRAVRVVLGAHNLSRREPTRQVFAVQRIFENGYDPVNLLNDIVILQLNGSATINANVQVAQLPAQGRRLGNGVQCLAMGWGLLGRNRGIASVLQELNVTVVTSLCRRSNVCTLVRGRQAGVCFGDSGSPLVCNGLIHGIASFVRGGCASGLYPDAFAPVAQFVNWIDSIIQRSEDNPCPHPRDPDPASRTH

cathepsin G = target: T7, cathepsin G (Homo sapiens, UniProt P08311); experiment: Cathepsin G activity inhibition; assay type: biochemical; settings: data not shown
T7 sequence (P08311 21-244): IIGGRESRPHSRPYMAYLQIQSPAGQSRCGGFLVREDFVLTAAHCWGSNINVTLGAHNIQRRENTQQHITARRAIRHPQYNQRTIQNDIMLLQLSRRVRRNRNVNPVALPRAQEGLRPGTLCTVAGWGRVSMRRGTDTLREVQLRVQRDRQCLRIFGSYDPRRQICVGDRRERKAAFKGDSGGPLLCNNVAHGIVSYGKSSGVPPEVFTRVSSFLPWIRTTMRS

293 cell extract = experiment: Cleavage of Z-Pro-Lys-Lys-Glu-AMC (Peptide 1) by 293 cell extract and its inhibition by protease inhibitors; assay type: biochemical, human; settings: different pHs, pH range 4.5-7.5
Description: Following a 20 minutes incubation at 37° C., fluorescence released due to proteolytic activity was determined using a BMG POLARstar™ Galaxy fluorometer: excitation at 390 nm and emission at 460 nm.

Cathepsin B = Cathepsin B (Homo sapiens, UniProt P07858); experiment: Proteolytic activity assay: cleavage of fluorogenic peptides by cathepsin B; assay type: biochemical; settings: substrate cleaved by Cathepsin B
Description: (§3) Assay was done in a reaction mixture containing 200 mM acetate buffer, pH 5.5, 4 mM EDTA and 8 mM DTT. Following a 20 minutes incubation at 37° C., fluorescence released due to proteolytic activity was determined using a BMG POLARstar™ Galaxy fluorometer: excitation at 390 nm and emission at 460 nm.

Cathepsin L = target: T8, Cathepsin L (Homo sapiens, UniProt P07711); experiment: Proteolytic activity assay: cleavage of fluorogenic peptides by cathepsin L; assay type: biochemical; settings: substrate cleaved by Cathepsin L
T8 construct: purchased Calbiochem
T8 sequence (P07711 114-333, species assumed): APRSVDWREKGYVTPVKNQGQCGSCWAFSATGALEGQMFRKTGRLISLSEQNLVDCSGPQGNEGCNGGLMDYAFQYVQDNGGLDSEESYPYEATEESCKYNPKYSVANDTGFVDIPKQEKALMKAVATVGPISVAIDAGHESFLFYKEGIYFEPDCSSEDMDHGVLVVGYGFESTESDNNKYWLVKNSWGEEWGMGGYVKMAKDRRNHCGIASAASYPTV
Description: as §3

IC50 (pro-heparanase (H60) [1]; inhibition of pro-heparanase activation, Table 11, heparin-binding compounds): 570 nM
Binding to heparin (5 uM) [2]: 70%
pro-heparanase expression [3]: did not affect pro-heparanase expression
IC50 (β-FGF): 1300 nM
IC50 (VEGF): 2400 nM
IC50 (antithrombin): 18000 nM
IC50 (heparanase (H53)): 20000 nM
Compound: Cc1cc(N(C)C)cc2[s+]c3cc(N(C)C)cc(C)c3nc12 [Compound 112]
pro-heparanase processing [3]: completely inhibited pro-heparanase processing

activation of pro-heparanase in vitro (heparanase activity) (pro-heparanase (H60) [4]): not by cathepsin B
IC50 (pro-heparanase (H60) [1]; inhibition of pro-heparanase (H60) activation, Table 13 serine protease inhibitors): 500 nM
IC50 [6]: 13000 nM
inhibition of the activity of cathepsin G (cathepsin G): inhibit the activity of cathepsin G
Compound: O=C(Nc1ccc(Oc2cccc(Oc3ccc(NC(=O)c4ccncc4)cc3)c2)cc1)c1ccncc1 [Compound 128]
inhibition of pro-heparanase activation in-vitro by cathepsin G (pro-heparanase (H60) [5]): inhibit pro-heparanase activation in-vitro by cathepsin G

Compound: Z-Pro-Lys-Lys-Glu-AMC (Cbz-PKKE-{AMC}; SMILES Cc1cc(=O)oc2cc(NC(=O)[C@H](CCC(=O)O)NC(=O)[C@H](CCCCN)NC(=O)[C@H](CCCCN)NC(=O)[C@@H]3CCCN3C(=O)OCc3ccccc3)ccc12) [Peptide 1]
cleavage by 293 cell extract (293 cell extract): highest at pH 5.5-6.5
Activity (δfluorescence) (Cathepsin B): 8926
Activity (δfluorescence) (Cathepsin L): 0
